Reference: US12624350B2, “High-throughput single-nuclei and single-cell libraries and methods of making and of using” (ILLUMINA, INC., priority 2019, dated 2026)

Tested on: HEK293T cells
Test: flavopiridol time course, sci-RNA-seq with hash ladder
Type: cell-based, human
Settings: 300 nM, longest exposure times
Procedure: For the flavopiridol time course experiment, HEK293T cells were seeded onto a 6-well culture plate at a density of 4×10^5 cells per well. For the HDAC inhibitor time course and HDAC inhibitor and Dexamethasone co-treatment experiments, A549 cells were seeded onto a 96-well culture plate at a density of 2.5×10^4 cells per well.
The cells were grown for 24 hours after they were seeded onto the cell culture plates. For the flavopiridol time course experiment, 0.9 uL of 1 mM flavopiridol was added to each 6 well to attain final concentration of 300 nM. […]
The capture of hash ladder by nuclei is determined by factors including, but not limited to, sample processing and sequencing depth. […] We empirically determined that the ladder should be constructed so that around 6 million hash molecules are captured per nuclei (assuming that each nucleus takes up equal amount of hash molecules in the solution) to obtain a median hash UMI count of 1,000-5,000. […]
For the harvest of cells, media was removed and cells were washed with DPBS and dissociated off the plate using trypLE. […] Cells were then counted with a hemocytometer using 0.4% Trypan Blue. […]
Isolated and hashed nuclei were then permeabilized in permeabilization buffer (0.25% Triton-X in NSB) for 3 minutes on ice and then spun down. […] Cell counts were obtained by staining nuclei with 0.4% Trypan Blue (Sigma-Aldrich) and counted using a hemocytometer. […]

CN1CC[C@H](c2c(O)cc(O)c3c(=O)cc(-c4ccccc4Cl)oc23)[C@H](O)C1 [flavopiridol]
RNA recovery per-cell (total RNA UMI counts): greatest reduction in RNA recovery per-cell
